Measured values published in US11987648B2, “Cyclohexapeptides as selective somatostatin SST5 receptor agonists” (Heptares Therapeutics Limited, priority 2018, dated 2024).
*1 amine or outer side, *2 acyl side, *3 side chain or, on linkers, in order; H or OH if unused. Where a SMILES comes first, the peptide text is derived from it. Side-chain parts run from the residue outwards. [ ]: non-standard residue; d: D form. The star is where a group is joined. Ala(piperidin-4-yl) = O=C([C@H](CC1CCN([*:3])CC1)N[*:1])[*:2]; dTrp(4-OMe) = COc1cccc2[nH]cc(C[C@@H](N)C(=O)O)c12; X8 = COc1cc2c(cc1OC)CN([*:1])[C@H](C(=O)[*:2])C2; dTrp(4-Me) = Cc1cccc2[nH]cc(C[C@@H](N)C(=O)O)c12; Ala(piperazin-1-yl) = N[C@@H](CN1CCNCC1)C(=O)O; Tyr(Ph) = N[C@@H](Cc1ccc(Oc2ccccc2)cc1)C(=O)O; X7 = NCCOC(=O)N1CCN([*:1])[C@H](C(=O)[*:2])C1; Morpholine(3S-CO) = O=C(O)[C@@H]1COCCN1; Pro(4,4-F2) = O=C(O)[C@@H]1CC(F)(F)CN1; Ethylenediamine = C(CN[*:2])N[*:1]; d(hPhe) = N[C@H](CCc1ccccc1)C(=O)O; Hyp = O=C(O)[C@@H]1C[C@@H](O)CN1; NMeF = CN[C@@H](Cc1ccccc1)C(=O)O; Pip(4-aza) = O=C(O)[C@@H]1CNCCN1; hPhe = N[C@@H](CCc1ccccc1)C(=O)O; 3Pal = N[C@@H](Cc1cccnc1)C(=O)O; Cyclohexylmethyl = C1CCC(C*)CC1; Tic = O=C(O)[C@@H]1Cc2ccccc2CN1; Benzyl(4-Cl) = Clc1ccc(C*)cc1; Phg = N[C@H](C(=O)O)c1ccccc1; X9 = O=C(C1CNCCN1[*:1])[*:2]; Pip = O=C(O)[C@@H]1CCCCN1; X3 = CN[C@H]1CCN(*)C1; CO = O=C([*:1])[*:2]; Bn = c1ccc(C*)cc1

Tests used:
[1] = biological target: SST5 (Homo sapiens, UniProt P35346); assay: Hit Hunter cAMP XS+ assay, SST5 activation via Gi (reduction of forskolin-stimulated cAMP); type: cell-based; settings: for Emax: read-out: SST5 (EMax); for EC50: reduction of forskolin-stimulated cAMP, 4-parameter logistic fit, read-out: SST5 pEC50 (converted); for SST5/2 Selectivity: selectivity for SST5 over SST2
Procedure, shortened: (§1)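 Cells (10,000/well) incubated 30 min at 37 °C with compound under EC80 forskolin ([…] for SST2, 15 μM for SST5). cAMP reduction was detected by enzyme-fragment complementation chemiluminescence after 60 min and 180 min room-temperature reagent steps. Potency and efficacy were both measured.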

[2] = biological target: SST2 (Homo sapiens, UniProt P30874); assay: Hit Hunter cAMP XS+ assay, SST2 activation via Gi (reduction of forskolin-stimulated cAMP); type: cell-based; settings: for Emax: read-out: SST2 (EMax); for EC50: reduction of forskolin-stimulated cAMP, 4-parameter logistic fit, read-out: SST2 pEC50 (converted)
Procedure, shortened: as §1

Sequence of SST2 (P30874 whole entry): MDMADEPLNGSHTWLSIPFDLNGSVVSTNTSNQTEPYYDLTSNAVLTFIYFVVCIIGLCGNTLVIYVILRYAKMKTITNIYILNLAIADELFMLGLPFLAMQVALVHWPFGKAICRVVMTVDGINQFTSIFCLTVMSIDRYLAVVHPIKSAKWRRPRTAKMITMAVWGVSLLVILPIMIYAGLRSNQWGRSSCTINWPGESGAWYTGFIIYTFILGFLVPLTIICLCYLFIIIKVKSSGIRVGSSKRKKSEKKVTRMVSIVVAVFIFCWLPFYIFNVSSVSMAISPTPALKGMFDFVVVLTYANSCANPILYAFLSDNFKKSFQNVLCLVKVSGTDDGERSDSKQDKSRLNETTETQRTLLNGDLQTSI
Sequence of SST5 (P35346 whole entry, the tested form may be a part): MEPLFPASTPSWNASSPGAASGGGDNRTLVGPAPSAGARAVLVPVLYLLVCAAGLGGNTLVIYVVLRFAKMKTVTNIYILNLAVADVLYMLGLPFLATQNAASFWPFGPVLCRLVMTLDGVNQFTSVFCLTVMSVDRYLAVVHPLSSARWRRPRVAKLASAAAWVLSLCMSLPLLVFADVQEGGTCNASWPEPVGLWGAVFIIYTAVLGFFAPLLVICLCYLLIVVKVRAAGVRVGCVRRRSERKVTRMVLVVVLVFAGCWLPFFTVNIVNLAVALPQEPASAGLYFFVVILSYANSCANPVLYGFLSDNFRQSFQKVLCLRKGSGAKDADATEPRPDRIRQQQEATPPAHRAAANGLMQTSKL

Emax [1] [%] | EC50 [1] [nM] | SST5/2 Selectivity [1] | Emax [2] [%] | EC50 [2] [nM] | SMILES
106 | 10 | 1120.0 | 85.9 | > 10000 | COc1ccc(C[C@@H]2NC(=O)[C@H](Cc3ccc(OCc4ccccc4)cc3)NC(=O)[C@H](CC3CCNCC3)NC(=O)[C@@H](Cc3c[nH]c4ccccc34)NC(=O)[C@@H](CCc3ccccc3)NC(=O)[C@@H]3C[C@@H](OC(=O)NCCN)CN3C2=O)cc1 [Example 55] (cyclo([Hyp]([CO-Ethylenediamine])[d(hPhe)][dW][Ala(piperidin-4-yl)]Y(Bn)Y(Me)))
102 | 0.501 | 404.6 | 96.5 | 200 | CN1C(=O)[C@H](Cc2ccc(OCc3ccccc3)cc2)NC(=O)[C@H](CN2CCNCC2)NC(=O)[C@@H](Cc2c[nH]c3ccccc23)NC(=O)[C@H](CCc2ccccc2)NC(=O)[C@@H]2C[C@@H](OC(=O)NCCN)CN2C(=O)[C@@H]1Cc1ccccc1 [Example 57] (cyclo([Hyp]([CO-Ethylenediamine])[hPhe][dW][Ala(piperazin-1-yl)]Y(Bn)[NMeF]))
103 | 15.8 | 695.7 | 42.9 | > 10000 | NCCNC(=O)O[C@@H]1C[C@H]2C(=O)N[C@H](CCc3ccccc3)C(=O)N[C@H](Cc3c[nH]c4ccccc34)C(=O)N[C@@H](CN3CCNCC3)C(=O)N[C@@H](Cc3ccc(OCc4ccc(Cl)cc4)cc3)C(=O)N[C@@H](Cc3cccnc3)C(=O)N2C1 [Example 58] (cyclo([3Pal][Hyp]([CO-Ethylenediamine])[d(hPhe)][dW][Ala(piperazin-1-yl)]Y(Benzyl(4-Cl))))
106 | 0.631 | 738.9 | 95.7 | 501 | NCCNC(=O)O[C@@H]1C[C@H]2C(=O)N[C@@H](CCc3ccccc3)C(=O)N[C@H](Cc3c[nH]c4ccccc34)C(=O)N[C@@H](CN3CCNCC3)C(=O)N[C@@H](Cc3ccc(OCc4ccc(Cl)cc4)cc3)C(=O)N[C@@H](Cc3cccnc3)C(=O)N2C1 [Example 59] (cyclo([3Pal][Hyp]([CO-Ethylenediamine])[hPhe][dW][Ala(piperazin-1-yl)]Y(Benzyl(4-Cl))))
104 | 1 | 129.4 | 99.8 | 126 | Cc1cccc2[nH]cc(C[C@H]3NC(=O)[C@H](CCc4ccccc4)NC(=O)[C@@H]4C[C@@H](OC(=O)NCCN)CN4C(=O)[C@H](Cc4cccnc4)NC(=O)[C@H](Cc4ccc(OCc5ccccc5)cc4)NC(=O)[C@H](CC4CCNCC4)NC3=O)c12 [Example 60] (cyclo([3Pal][Hyp]([CO-Ethylenediamine])[hPhe][dTrp(4-Me)][Ala(piperidin-4-yl)]Y(Bn)))
103 | 31.6 | 291.4 | 23.4 | > 10000 | O=C1N[C@@H](Cc2ccc(OCc3ccccc3)cc2)C(=O)N2Cc3ccccc3C[C@H]2C(=O)N2CCOC[C@H]2C(=O)N[C@H](CCc2ccccc2)C(=O)N[C@H](Cc2c[nH]c3ccccc23)C(=O)N[C@H]1CN1CCNCC1 [Example 61] (cyclo([Tic][Morpholine(3S-CO)][d(hPhe)][dW][Ala(piperazin-1-yl)]Y(Bn)))
102 | 3.16 | 224.3 | 99.4 | 631 | O=C1N[C@@H](Cc2ccc(OCc3ccccc3)cc2)C(=O)N2Cc3ccccc3C[C@H]2C(=O)N2CCOC[C@H]2C(=O)N[C@H](CCc2ccccc2)C(=O)N[C@H](Cc2c[nH]c3ccccc23)C(=O)N[C@H]1CC1CCNCC1 [Example 62] (cyclo([Tic][Morpholine(3S-CO)][d(hPhe)][dW][Ala(piperidin-4-yl)]Y(Bn)))
104 | 2.51 | 24.4 | 102 | 63.1 | COc1cccc2[nH]cc(C[C@H]3NC(=O)[C@@H](CCc4ccccc4)NC(=O)[C@@H]4COCCN4C(=O)[C@@H]4Cc5ccccc5CN4C(=O)[C@H](Cc4ccc(OCc5ccccc5)cc4)NC(=O)[C@H](CN4CCNCC4)NC3=O)c12 [Example 63] (cyclo([Tic][Morpholine(3S-CO)][d(hPhe)][dTrp(4-OMe)][Ala(piperazin-1-yl)]Y(Bn)))
104 | 15.8 | 5.5 | 100 | 100 | COc1cccc2[nH]cc(C[C@H]3NC(=O)[C@H](c4ccccc4)NC(=O)[C@@H]4C[C@@H](OC(=O)NCCN)CN4C(=O)[C@H](Cc4ccccc4)NC(=O)[C@H](Cc4ccc(OCc5ccccc5)cc4)NC(=O)[C@H](CN4CCNCC4)NC3=O)c12 [Example 64] (cyclo(F[Hyp]([CO-Ethylenediamine])[Phg][dTrp(4-OMe)][Ala(piperazin-1-yl)]Y(Bn)))
99.4 | 0.398 | 2293.7 | 91.8 | 1000 | O=C1N[C@@H](CCc2ccccc2)C(=O)N[C@H](Cc2c[nH]c3ccccc23)C(=O)N[C@@H](CN2CCNCC2)C(=O)N[C@@H](Cc2ccc(OCc3ccccc3)cc2)C(=O)N2Cc3ccccc3C[C@H]2C(=O)N2CCNCC12 (some centres unmarked) [Example 65] (cyclo([Tic][X9][hPhe][dW][Ala(piperazin-1-yl)]Y(Bn)))
103 | 1.26 | 7454.5 | 51.1 | > 10000 | COc1cc2c(cc1OC)CN1C(=O)[C@H](Cc3ccc(OCc4ccccc4)cc3)NC(=O)[C@H](CC3CCNCC3)NC(=O)[C@@H](Cc3c[nH]c4ccccc34)NC(=O)[C@H](CCc3ccccc3)NC(=O)[C@@H]3C[C@@H](OC(=O)NCCN)CN3C(=O)[C@@H]1C2 [Example 66] (cyclo([Hyp]([CO-Ethylenediamine])[hPhe][dW][Ala(piperidin-4-yl)]Y(Bn)[X8]))
104 | 15.8 | 25.7 | 98.3 | 398 | NCCNC(=O)O[C@@H]1C[C@H]2C(=O)N[C@@H](CCc3ccccc3)C(=O)N[C@H](Cc3c[nH]c4ccccc34)C(=O)N[C@@H](CC3CCNCC3)C(=O)N[C@@H](Cc3ccc(Oc4ccccc4)cc3)C(=O)N[C@@H](Cc3cccnc3)C(=O)N2C1 [Example 67] (cyclo([3Pal][Hyp]([CO-Ethylenediamine])[hPhe][dW][Ala(piperidin-4-yl)][Tyr(Ph)]))
98.8 | 0.316 | 791.6 | 99.1 | 251 | COc1cccc2[nH]cc(C[C@H]3NC(=O)[C@H](CCc4ccccc4)NC(=O)[C@@H]4COCCN4C(=O)[C@@H]4Cc5ccccc5CN4C(=O)[C@H](Cc4ccc(OCc5ccccc5)cc4)NC(=O)[C@H](CN4CCNCC4)NC3=O)c12 [Example 68] (cyclo([Tic][Morpholine(3S-CO)][hPhe][dTrp(4-OMe)][Ala(piperazin-1-yl)]Y(Bn)))
103 | 79.4 | 124.3 | 69 | > 10000 | NCCNC(=O)O[C@@H]1C[C@H]2C(=O)N[C@@H](CCc3ccccc3)C(=O)N[C@H](Cc3c[nH]c4ccccc34)C(=O)N[C@@H](CN3CCNCC3)C(=O)N[C@@H](Cc3ccc(OCc4ccccc4)cc3)C(=O)N3CCCC[C@H]3C(=O)N2C1 [Example 69] (cyclo([Hyp]([CO-Ethylenediamine])[hPhe][dW][Ala(piperazin-1-yl)]Y(Bn)[Pip]))
102 | 5.01 | 1815.8 | 77.9 | > 10000 | NCCNC(=O)O[C@@H]1C[C@H]2C(=O)N[C@@H](CCc3ccccc3)C(=O)N[C@H](Cc3c[nH]c4ccccc34)C(=O)N[C@@H](CN3CCNCC3)C(=O)N[C@@H](Cc3ccc(OCc4ccccc4)cc3)C(=O)N3CC(F)(F)C[C@H]3C(=O)N2C1 [Example 70] (cyclo([Hyp]([CO-Ethylenediamine])[hPhe][dW][Ala(piperazin-1-yl)]Y(Bn)[Pro(4,4-F2)]))
103 | 63.1 | 171.4 | 52.8 | > 10000 | NCCNC(=O)O[C@@H]1C[C@H]2C(=O)N[C@H](CCc3ccccc3)C(=O)N[C@H](Cc3c[nH]c4ccccc34)C(=O)N[C@@H](CN3CCNCC3)C(=O)N[C@@H](Cc3ccc(OCC4CCCCC4)cc3)C(=O)N[C@@H](Cc3cccnc3)C(=O)N2C1 [Example 71] (cyclo([3Pal][Hyp]([CO-Ethylenediamine])[d(hPhe)][dW][Ala(piperazin-1-yl)]Y(Cyclohexylmethyl)))
101 | 6.31 | 1621.3 | 14 | > 10000 | NCCOC(=O)N1CCN2C(=O)[C@@H]3Cc4ccccc4CN3C(=O)[C@H](Cc3ccc(OCc4ccccc4)cc3)NC(=O)[C@H](CN3CCNCC3)NC(=O)[C@@H](Cc3c[nH]c4ccccc34)NC(=O)[C@H](CCc3ccccc3)NC(=O)[C@@H]2C1 [Example 72] (cyclo([Tic][X7][hPhe][dW][Ala(piperazin-1-yl)]Y(Bn)))
94.9 | 0.631 | 566.7 | 99.2 | 398 | O=C1N[C@@H](Cc2ccc(OCc3ccccc3)cc2)C(=O)N2Cc3ccccc3C[C@H]2C(=O)N2CCNC[C@H]2C(=O)N[C@@H](CCc2ccccc2)C(=O)N[C@H](Cc2c[nH]c3ccccc23)C(=O)N[C@H]1CC1CCNCC1 [Example 73] (cyclo([Tic][Pip(4-aza)][hPhe][dW][Ala(piperidin-4-yl)]Y(Bn)))
106 | 1.26 | 2726.7 | 76.2 | 3160 | CN[C@H]1CCN(C(=O)O[C@@H]2C[C@H]3C(=O)N[C@@H](CCc4ccccc4)C(=O)N[C@H](Cc4c[nH]c5ccccc45)C(=O)N[C@@H](CC4CCNCC4)C(=O)N[C@@H](Cc4ccc(OCc5ccccc5)cc4)C(=O)N4Cc5ccccc5C[C@H]4C(=O)N3C2)C1 [Example 78] (cyclo([Hyp]([CO-X3])[hPhe][dW][Ala(piperidin-4-yl)]Y(Bn)[Tic]))
